molecular target: human Nav1.7 (Homo sapiens, UniProt Q15858); assay: FLIPR sodium dye assay (CoroNa Green AM Na+ dye, primary fluorescence assay) in recombinant Nav1.7/HEK293 cells; assay type: cell-based; conditions: Table 6; CoroNa Green AM Na+ dye primary fluorescence assay; read-out: Nav1.7 Activity (μM) FLIPR assay IC50
Sequence (Q15858 1-1977 isoform Q15858-3): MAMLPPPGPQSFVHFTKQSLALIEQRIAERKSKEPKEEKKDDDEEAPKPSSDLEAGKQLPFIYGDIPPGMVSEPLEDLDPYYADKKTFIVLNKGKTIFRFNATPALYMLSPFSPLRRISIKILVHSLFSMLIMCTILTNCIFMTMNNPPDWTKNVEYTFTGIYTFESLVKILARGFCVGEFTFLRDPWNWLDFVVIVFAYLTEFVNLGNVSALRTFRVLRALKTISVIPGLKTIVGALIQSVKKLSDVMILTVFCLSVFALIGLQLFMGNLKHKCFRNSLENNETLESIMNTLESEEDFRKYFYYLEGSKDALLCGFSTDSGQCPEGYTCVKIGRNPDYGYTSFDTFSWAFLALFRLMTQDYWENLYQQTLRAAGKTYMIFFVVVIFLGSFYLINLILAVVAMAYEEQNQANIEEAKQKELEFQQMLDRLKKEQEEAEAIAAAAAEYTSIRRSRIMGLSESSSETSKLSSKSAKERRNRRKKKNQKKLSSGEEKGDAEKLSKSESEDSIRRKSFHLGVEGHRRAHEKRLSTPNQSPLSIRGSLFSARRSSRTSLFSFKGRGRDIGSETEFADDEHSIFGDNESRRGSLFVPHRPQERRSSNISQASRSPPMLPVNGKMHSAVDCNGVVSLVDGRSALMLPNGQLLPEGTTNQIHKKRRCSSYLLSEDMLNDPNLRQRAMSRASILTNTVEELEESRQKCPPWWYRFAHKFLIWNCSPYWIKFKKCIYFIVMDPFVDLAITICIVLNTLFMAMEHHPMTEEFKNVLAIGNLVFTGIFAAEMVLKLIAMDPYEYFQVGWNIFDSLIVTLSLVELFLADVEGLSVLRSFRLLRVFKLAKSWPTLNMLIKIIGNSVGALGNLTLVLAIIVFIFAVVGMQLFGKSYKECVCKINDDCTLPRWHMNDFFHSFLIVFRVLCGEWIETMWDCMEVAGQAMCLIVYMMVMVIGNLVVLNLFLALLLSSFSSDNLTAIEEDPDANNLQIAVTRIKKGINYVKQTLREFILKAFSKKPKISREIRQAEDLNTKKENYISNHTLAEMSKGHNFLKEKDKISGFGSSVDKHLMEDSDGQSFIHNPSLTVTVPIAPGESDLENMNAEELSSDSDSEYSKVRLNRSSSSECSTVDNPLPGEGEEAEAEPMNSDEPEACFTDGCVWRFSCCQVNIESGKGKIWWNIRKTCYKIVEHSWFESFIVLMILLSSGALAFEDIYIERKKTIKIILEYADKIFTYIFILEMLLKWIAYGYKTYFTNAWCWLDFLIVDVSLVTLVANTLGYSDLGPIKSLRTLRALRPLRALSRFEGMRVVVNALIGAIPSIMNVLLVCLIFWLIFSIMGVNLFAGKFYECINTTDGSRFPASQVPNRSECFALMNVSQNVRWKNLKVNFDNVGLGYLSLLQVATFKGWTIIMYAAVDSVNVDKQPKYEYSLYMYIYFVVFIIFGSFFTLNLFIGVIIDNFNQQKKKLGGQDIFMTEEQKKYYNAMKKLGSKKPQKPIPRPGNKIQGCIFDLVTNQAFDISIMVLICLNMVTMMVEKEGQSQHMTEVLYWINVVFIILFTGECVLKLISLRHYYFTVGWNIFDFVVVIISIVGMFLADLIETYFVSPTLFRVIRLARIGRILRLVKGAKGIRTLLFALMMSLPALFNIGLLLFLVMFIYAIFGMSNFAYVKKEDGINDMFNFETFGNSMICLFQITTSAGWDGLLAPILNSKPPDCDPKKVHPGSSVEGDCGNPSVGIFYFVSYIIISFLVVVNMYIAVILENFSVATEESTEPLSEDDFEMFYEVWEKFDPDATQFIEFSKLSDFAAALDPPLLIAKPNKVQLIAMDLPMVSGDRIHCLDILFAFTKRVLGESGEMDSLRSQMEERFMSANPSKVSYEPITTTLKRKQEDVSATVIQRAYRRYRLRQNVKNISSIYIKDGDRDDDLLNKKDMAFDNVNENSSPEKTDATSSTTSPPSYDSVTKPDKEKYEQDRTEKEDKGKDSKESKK

SMILES	IC50 [µM]
NC(=O)c1cc(NCc2ncc[nH]2)nc(-c2ccc(Oc3ccc(F)cc3)cc2)n1 [Cpd No. 179, 6-(((1H-imidazol-2-yl)methyl)amino)-2-(4-(4-fluorophenoxy)phenyl)-pyrimidine-4-carboxamide]	> 20
NC(=O)c1cc(N[C@H]2CCNC2=O)nc(N2[C@@H]3CC[C@H]2C[C@H](Oc2ccc(F)cc2Cl)C3)n1 [Cpd No. 182, 2-((1R,3R,5S)-3-(2-chloro-4-fluorophenoxy)-8-azabicyclo[3.2.1]octan-8-yl)-6-(((S)-2-oxopyrrolidin-3-yl)amino)pyrimidine-4-carboxamide]	0.35
C[C@H](Oc1cc(C(N)=O)nc(-c2ccc(Oc3ccc(C(F)(F)F)cc3CN3CCCC3)cc2)n1)C(=O)O [Cpd No. 184, (S)-2-((6-carbamoyl-2-(4-(2-(pyrrolidin-1-ylmethyl)-4-(trifluoromethyl)phenoxy)-phenyl)pyrimidin-4-yl)oxy)propanoic acid]	9.72
NC(=O)c1cc(N[C@H]2CCNC2=O)nc(-c2ccc(CC3CCC(C(F)(F)F)CN3)cc2)n1 (stereo partly drawn) [Cpd No. 185, 6-(((S)-2-oxopyrrolidin-3-yl)amino)-2-(4-((5-(trifluoromethyl)piperidin-2-yl)methyl)phenyl)pyrimidine-4-carboxamide]	8.69
NC(=O)c1cc(N[C@H]2CCNC2=O)nc(-c2ccc(Oc3ccc(F)cc3)cc2CN2CCOCC2)n1 [Cpd No. 187, (S)-2-(4-(4-fluorophenoxy)-2-(morpholinomethyl)phenyl)-6-((2-oxopyrrolidin-3-yl)amino)-pyrimidine-4-carboxamide]	5.67
CC1CN1Cc1cc(Oc2ccc(F)cc2)ccc1-c1nc(N[C@H]2CCNC2=O)cc(C(N)=O)n1 (stereo partly drawn) [Cpd No. 188, 2-(4-(4-fluorophenoxy)-2-((2-methylaziridin-1-yl)methyl)-phenyl)-6-(((S)-2-oxopyrrolidin-3-yl)amino)pyrimidine-4-carboxamide]	4.64
NC(=O)c1cc(N[C@H]2CCNC2=O)nc(-c2ccc(C(O)c3ccc(C(F)(F)F)cn3)cc2)n1 (some centres unmarked) [Cpd No. 189]	> 20
NC(=O)c1cc(N[C@H]2CCNC2=O)nc(N2[C@@H]3CC[C@H]2C[C@@H](Oc2ccc(C(F)(F)F)cc2CN2CCCC2)C3)n1 [Cpd No. 191, 6-(((S)-2-oxopyrrolidin-3-yl)amino)-2-((1R,3S,5S)-3-(2-(pyrrolidin-1-ylmethyl)-4-(trifluoromethyl)phenoxy)-8-azabicyclo[3.2.1]octan-8-yl)pyrimidine-4-carboxamide]	1.97
CN1CCN(Cc2cc(C(F)(F)F)ccc2Oc2ccc(-c3nc(N[C@H]4CCNC4=O)cc(C(N)=O)n3)cc2)CC1 [Cpd No. 193]	> 20
C[C@H](Nc1cc(C(N)=O)nc(-c2ccc(Oc3cnc(C4CC4)cn3)cc2)n1)C(N)=O [Cpd No. 195, (S)-6-((1-amino-1-oxopropan-2-yl)amino)-2-(4-((5-cyclopropyl-pyrazin-2-yl)oxy)phenyl)-pyrimidine-4-carboxamide]	> 20
Cc1cnc(Oc2ccc(-c3nc(N[C@@H](C)C(N)=O)cc(C(N)=O)n3)cc2)cn1 [Cpd No. 196, (S)-6-((1-amino-1-oxopropan-2-yl)amino)-2-(4-((5-methyl-pyrazin-2-yl)oxy)phenyl)-pyrimidine-4-carboxamide]	> 20
COc1cnc(Oc2ccc(-c3nc(N[C@H]4CCNC4=O)cc(C(N)=O)n3)cc2)cn1 [Cpd No. 197, (S)-2-(4-((5-methoxypyrazin-2-yl)oxy)phenyl)-6-((2-oxopyrrolidin-3-yl)amino)-pyrimidine-4-carboxamide]	5.07
COc1cnc(Oc2ccc(-c3nc(N[C@@H](C)C(N)=O)cc(C(N)=O)n3)cc2)cn1 [Cpd No. 198, (S)-6-((1-amino-1-oxopropan-2-yl)amino)-2-(4-((5-methoxy-pyrazin-2-yl)oxy)phenyl)-pyrimidine-4-carboxamide]	> 20
CN(C)Cc1cc(Oc2ccc(C(F)(F)F)cc2)ccc1-c1nc(N[C@H]2CCNC2=O)cc(C(N)=O)n1 [Cpd No. 201, (S)-2-(2-((dimethylamino)-methyl)-4-(4-(trifluoromethyl)-phenoxy)phenyl)-6-((2-oxopyrrolidin-3-yl)-amino)pyrimidine-4-carboxamide]	> 20
N#Cc1cc(C(F)(F)F)ccc1O[C@H]1C[C@H]2CC[C@@H](C1)N2c1nc(N[C@H]2CCNC2=O)cc(C(N)=O)n1 [Cpd No. 204, 2-((1R,3S,5S)-3-(2-cyano-4-(trifluoromethyl)phenoxy)-8-azabicyclo-[3.2.1]octan-8-yl)-6-(((S)-2-oxopyrrolidin-3-yl)amino)pyrimidine-4-carboxamide]	> 20
NC(=O)c1cc(N[C@H]2CCNC2=O)nc(-c2ccc(Oc3ccc(C(F)(F)F)c(C4=CCNCC4)c3)cc2)n1 [Cpd No. 205, (S)-6-((2-oxopyrrolidin-3-yl)amino)-2-(4-(3-(1,2,3,6-tetrahydropyridin-4-yl)-4-(trifluoromethyl)phenoxy)phenyl)pyrimidine-4-carboxamide]	> 20
NC(=O)c1cc(N[C@H]2CCNC2=O)nc(-c2ccc(Oc3ccc(C(F)(F)F)cc3C3=CCNCC3)cc2)n1 [Cpd No. 206, (S)-6-((2-oxopyrrolidin-3-yl)amino)-2-(4-(2-(1,2,3,6-tetrahydropyridin-4-yl)-4-(trifluoromethyl)phenoxy)phenyl)pyrimidine-4-carboxamide]	5.28
NC(=O)c1cc(N[C@H]2CCNC2=O)nc(-c2ccc(Oc3ccc(C(F)(F)F)cc3)c(N3CCCCC3)c2)n1 [Cpd No. 209, (S)-6-((2-oxopyrrolidin-3-yl)amino)-2-(3-(piperidin-1-yl)-4-(4-(trifluoromethyl)phenoxy)-phenyl)pyrimidine-4-carboxamide]	> 20

The next lines start with the values.

IC50 [µM]	SMILES
1.74	COc1ccc(CNc2cc(C(N)=O)nc(-c3ccc(Oc4ccc(F)cc4)cc3)n2)c(OC)c1 [Cpd No. 178, 6-((2,4-dimethoxybenzyl)amino)-2-(4-(4-fluorophenoxy)phenyl)-pyrimidine-4-carboxamide]
0.14	Cn1ccnc1CNc1cc(C(N)=O)nc(-c2ccc(Oc3ccc(F)cc3)cc2)n1 [Cpd No. 180, 2-(4-(4-fluorophenoxy)phenyl)-6-(((1-methyl-1H-imidazol-2-yl)methyl)-amino)pyrimidine-4-carboxamide]
1.34	NC(=O)c1cc(N[C@H]2CCNC2=O)nc(-c2ccc(Oc3ccc(C(F)(F)F)cc3CN3CCOCC3)cc2)n1 [Cpd No. 192, (S)-2-(4-(2-(morpholinomethyl)-4-(trifluoromethyl)phenoxy)-phenyl)-6-((2-oxopyrrolidin-3-yl)amino)pyrimidine-4-carboxamide]
2.18	NC(=O)c1cc(N[C@H]2CCNC2=O)nc(-c2ccc(Oc3ccc(C(F)(F)F)cc3CN3CCCCC3)cc2)n1 [Cpd No. 194, (S)-6-((2-oxopyrrolidin-3-yl)amino)-2-(4-(2-(piperidin-1-ylmethyl)-4-(trifluoromethyl)-phenoxy)phenyl)pyrimidine-4-carboxamide]
4.67	Cc1cnc(Oc2ccc(-c3nc(N[C@H]4CCNC4=O)cc(C(N)=O)n3)cc2)cn1 [Cpd No. 199, (S)-2-(4-((5-methylpyrazin-2-yl)oxy)phenyl)-6-((2-oxopyrrolidin-3-yl)amino)pyrimidine-4-carboxamide]
0.28	NC(=O)c1cc(N[C@H]2CCNC2=O)nc(-c2ccc(Oc3ccc(C(F)(F)F)cc3)cc2CN2CCOCC2)n1 [Cpd No. 200, (S)-2-(2-(morpholinomethyl)-4-(4-(trifluoromethyl)phenoxy)-phenyl)-6-((2-oxopyrrolidin-3-yl)amino)pyrimidine-4-carboxamide]
0.72	NC(=O)c1cc(N[C@H]2CCNC2=O)nc(-c2ccc(Oc3ccc(C(F)(F)F)cc3)cc2CN2CCCCC2)n1 [Cpd No. 202, (S)-6-((2-oxopyrrolidin-3-yl)amino)-2-(2-(piperidin-1-ylmethyl)-4-(4-(trifluoromethyl)-phenoxy)phenyl)pyrimidine-4-carboxamide]
0.76	CN1CCN(Cc2cc(Oc3ccc(C(F)(F)F)cc3)ccc2-c2nc(N[C@H]3CCNC3=O)cc(C(N)=O)n2)CC1 [Cpd No. 203, (S)-2-(2-((4-methylpiperazin-1-yl)methyl)-4-(4-(trifluoro-methyl)phenoxy)-phenyl)-6-((2-oxopyrrolidin-3-yl)amino)-pyrimidine-4-carboxamide]
4.7	CN1CC=C(c2cc(C(F)(F)F)ccc2Oc2ccc(-c3nc(N[C@H]4CCNC4=O)cc(C(N)=O)n3)cc2)CC1 [Cpd No. 207, (S)-2-(4-(2-(1-methyl-1,2,3,6-tetrahydropyridin-4-yl)-4-(trifluoromethyl)phenoxy)phenyl)-6-((2-oxopyrrolidin-3-yl)amino)pyrimidine-4-carboxamide]
0.75	CCN(CC)Cc1cc(C(F)(F)F)ccc1Oc1ccc(-c2nc(N[C@H]3CCNC3=O)cc(C(N)=O)n2)cc1 [Cpd No. 208, (S)-2-(4-(2-((diethylamino)-methyl)-4-(trifluoromethyl)-phenoxy)phenyl)-6-((2-oxopyrrolidin-3-yl)amino)pyrimidine-4-carboxamide]
1.94	CN1CCN(c2cc(Oc3ccc(-c4nc(N[C@H]5CCNC5=O)cc(C(N)=O)n4)cc3)ccc2C(F)(F)F)CC1 [Cpd No. 210, (S)-2-(4-(3-(4-methylpiperazin-1-yl)-4-(trifluoromethyl)phenoxy)phenyl)-6-((2-oxopyrrolidin-3-yl)amino)pyrimidine-4-carboxamide]
4.16	CN1CCN(c2cc(C(F)(F)F)ccc2Oc2ccc(-c3nc(N[C@H]4CCNC4=O)cc(C(N)=O)n3)cc2)CC1 [Cpd No. 211, (S)-2-(4-(2-(4-methylpiperazin-1-yl)-4-(trifluoromethyl)-phenoxy)phenyl)-6-((2-oxopyrrolidin-3-yl)amino)-pyrimidine-4-carboxamide]
4.73	NC(=O)c1cc(N[C@H]2CCNC2=O)nc(-c2ccc(Nc3ccc(F)cc3)c(N)c2)n1 [Cpd No. 212, (S)-2-(3-amino-4-((4-fluoro-phenyl)amino)phenyl)-6-((2-oxopyrrolidin-3-yl)amino)-pyrimidine-4-carboxamide]
0.69	NC(=O)c1cc(O[C@H]2CCNC2=O)nc(C2CCC(Oc3ccc(C(F)(F)F)cn3)CC2)n1 (some centres unmarked) [Cpd No. 213]

— patent US10196364B2, “Pyrimidine carboxamides as sodium channel blockers” (Purdue Pharma L.P., priority 2013, dated 2019)
